Measurements reported in ChEMBL document CHEMBL3132840 (Medchemcomm, 2014).
The source made the active and inactive calls. The rule behind the calls is not given here.

Tests used:
[1] = target: T1, Amine oxidase [flavin-containing] B (Homo sapiens, UniProt P27338)
T1 sequence (P27338 whole entry): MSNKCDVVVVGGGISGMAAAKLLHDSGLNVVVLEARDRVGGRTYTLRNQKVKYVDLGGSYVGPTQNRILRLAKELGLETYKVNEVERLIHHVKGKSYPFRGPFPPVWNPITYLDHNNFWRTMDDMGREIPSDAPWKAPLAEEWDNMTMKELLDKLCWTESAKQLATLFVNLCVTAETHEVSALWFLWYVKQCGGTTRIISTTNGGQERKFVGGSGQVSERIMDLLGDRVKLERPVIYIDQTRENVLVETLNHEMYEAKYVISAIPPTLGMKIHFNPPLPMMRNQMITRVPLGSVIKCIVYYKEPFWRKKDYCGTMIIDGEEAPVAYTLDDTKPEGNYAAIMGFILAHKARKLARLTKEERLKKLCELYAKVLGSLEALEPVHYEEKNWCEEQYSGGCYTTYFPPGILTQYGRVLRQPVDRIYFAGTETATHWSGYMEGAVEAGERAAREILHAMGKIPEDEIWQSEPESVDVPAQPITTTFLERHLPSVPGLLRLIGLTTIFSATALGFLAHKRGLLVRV

Acetylcholinesterase = Acetylcholinesterase (Electrophorus electricus, UniProt O42275); experiment: Inhibition of electric eel AChE using acetylthiocholine iodide as substrate incubated for 6 mins prior to substrate addition measured after 60 to 180 secs by Ellman's method
Sequence of Acetylcholinesterase (O42275 whole entry): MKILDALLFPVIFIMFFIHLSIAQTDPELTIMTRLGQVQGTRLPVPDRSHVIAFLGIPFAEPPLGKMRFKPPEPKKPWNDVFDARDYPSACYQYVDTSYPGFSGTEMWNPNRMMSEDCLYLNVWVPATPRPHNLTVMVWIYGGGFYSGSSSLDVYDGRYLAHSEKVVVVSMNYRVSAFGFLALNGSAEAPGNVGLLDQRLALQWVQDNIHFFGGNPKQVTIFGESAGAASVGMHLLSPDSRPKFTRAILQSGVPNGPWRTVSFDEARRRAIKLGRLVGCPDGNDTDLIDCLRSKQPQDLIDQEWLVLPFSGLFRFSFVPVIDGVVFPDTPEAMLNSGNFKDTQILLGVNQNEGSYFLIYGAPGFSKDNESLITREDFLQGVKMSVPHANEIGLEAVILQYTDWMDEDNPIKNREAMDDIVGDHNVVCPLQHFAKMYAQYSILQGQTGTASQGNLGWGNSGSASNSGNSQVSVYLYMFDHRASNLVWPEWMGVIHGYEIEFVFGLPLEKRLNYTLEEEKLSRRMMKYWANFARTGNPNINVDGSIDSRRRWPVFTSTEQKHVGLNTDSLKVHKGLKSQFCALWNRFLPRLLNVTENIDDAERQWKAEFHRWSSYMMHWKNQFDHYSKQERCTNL

[2] = target: T2, Amine oxidase [flavin-containing] A (Homo sapiens, UniProt P21397)
T2 sequence (P21397 whole entry): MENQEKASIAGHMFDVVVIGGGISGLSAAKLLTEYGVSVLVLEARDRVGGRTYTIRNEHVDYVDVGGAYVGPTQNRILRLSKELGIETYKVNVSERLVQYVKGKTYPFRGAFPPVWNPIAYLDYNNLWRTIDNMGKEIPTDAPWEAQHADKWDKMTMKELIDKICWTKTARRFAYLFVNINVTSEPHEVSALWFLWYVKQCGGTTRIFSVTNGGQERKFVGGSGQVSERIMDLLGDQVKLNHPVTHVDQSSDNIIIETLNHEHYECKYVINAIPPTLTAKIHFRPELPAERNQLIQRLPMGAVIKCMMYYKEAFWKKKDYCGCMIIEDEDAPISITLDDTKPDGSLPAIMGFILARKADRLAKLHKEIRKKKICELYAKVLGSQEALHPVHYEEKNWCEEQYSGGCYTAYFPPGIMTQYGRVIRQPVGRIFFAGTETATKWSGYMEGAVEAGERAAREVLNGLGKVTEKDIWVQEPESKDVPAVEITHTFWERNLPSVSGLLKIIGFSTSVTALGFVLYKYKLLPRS

Cholinesterase = Cholinesterase (Equus caballus, UniProt P81908)
Sequence of Cholinesterase (P81908 whole entry): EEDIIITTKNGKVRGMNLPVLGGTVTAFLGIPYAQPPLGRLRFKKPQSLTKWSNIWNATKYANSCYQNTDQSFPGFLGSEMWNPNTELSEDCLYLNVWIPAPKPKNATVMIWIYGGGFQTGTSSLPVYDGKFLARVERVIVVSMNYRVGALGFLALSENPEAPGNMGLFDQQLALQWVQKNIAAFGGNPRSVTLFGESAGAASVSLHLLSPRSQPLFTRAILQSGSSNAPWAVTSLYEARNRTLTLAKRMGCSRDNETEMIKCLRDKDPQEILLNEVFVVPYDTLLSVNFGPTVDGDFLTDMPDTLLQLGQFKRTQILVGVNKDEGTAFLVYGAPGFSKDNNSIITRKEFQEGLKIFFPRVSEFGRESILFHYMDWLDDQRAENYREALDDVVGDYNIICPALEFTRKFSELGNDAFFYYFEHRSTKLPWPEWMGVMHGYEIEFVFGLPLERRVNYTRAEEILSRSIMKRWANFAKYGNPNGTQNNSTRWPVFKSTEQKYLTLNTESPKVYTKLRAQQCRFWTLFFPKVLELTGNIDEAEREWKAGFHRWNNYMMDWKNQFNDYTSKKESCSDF

Homo sapiens = species: Homo sapiens; experiment: Selectivity index, ratio of IC50 for human MAO-B to IC50 for human MAO-A
[3] = target: Acetylcholinesterase (Electrophorus electricus) (UniProt O42275); experiment: Mixed-type inhibition of electric eel AChE using acetylthiocholine iodide as substrate incubated for 15 mins prior to substrate addition by Lineweaver-Burk plot analysis
Sequence of Acetylcholinesterase (Electrophorus electricus) (O42275 24-633 limits assumed): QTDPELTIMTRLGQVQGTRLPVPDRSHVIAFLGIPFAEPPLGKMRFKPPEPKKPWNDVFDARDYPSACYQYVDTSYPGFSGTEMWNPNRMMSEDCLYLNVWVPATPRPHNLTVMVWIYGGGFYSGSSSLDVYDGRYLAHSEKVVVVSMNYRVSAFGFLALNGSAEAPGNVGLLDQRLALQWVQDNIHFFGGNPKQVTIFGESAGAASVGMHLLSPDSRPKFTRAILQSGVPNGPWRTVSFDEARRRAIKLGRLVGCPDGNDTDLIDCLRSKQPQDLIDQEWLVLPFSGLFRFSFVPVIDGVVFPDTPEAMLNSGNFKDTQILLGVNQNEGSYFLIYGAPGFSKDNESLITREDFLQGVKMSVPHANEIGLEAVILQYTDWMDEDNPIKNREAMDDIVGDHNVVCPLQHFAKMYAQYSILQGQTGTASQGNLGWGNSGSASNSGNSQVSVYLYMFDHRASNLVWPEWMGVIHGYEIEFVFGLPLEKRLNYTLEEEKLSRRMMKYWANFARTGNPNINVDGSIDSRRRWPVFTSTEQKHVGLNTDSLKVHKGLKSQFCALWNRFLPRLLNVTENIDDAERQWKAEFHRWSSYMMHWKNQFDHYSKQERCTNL

[4] = Cytotoxicity against human SH-SY5Y cells assessed as cell viability at 50 uM after 24 hrs by MTT assay; type: cell-based; details: read-out: Activity
[5] = Cytotoxicity against human SH-SY5Y cells assessed as cell viability at 25 uM after 24 hrs by MTT assay; type: cell-based; details: read-out: Activity
[6] = Cytotoxicity against human SH-SY5Y cells assessed as cell viability at 10 uM after 24 hrs by MTT assay; type: cell-based; details: read-out: Activity
[7] = Cytotoxicity against human SH-SY5Y cells assessed as cell viability at 5 uM after 24 hrs by MTT assay; type: cell-based; details: read-out: Activity
[8] = Cytotoxicity against human SH-SY5Y cells assessed as cell viability at 1 uM after 24 hrs by MTT assay; type: cell-based; details: read-out: Activity

Compound | IC50 [1] | IC50 (Acetylcholinesterase) | IC50 [2] | IC50 (Cholinesterase) | Ratio IC50 (Homo sapiens) | inhibition [3] | viability at 24 h, 50 µM [4] | viability at 24 h, 25 µM [5] | viability at 24 h, 10 µM [6] | viability at 24 h, 5 µM [7] | viability at 24 h, 1 µM [8]
CCN(CCCCCCOc1ccc(/C=C/c2cc(OC)cc(OC)c2)cc1)Cc1cccc(OC)c1 | > 100 µM | 71.5 µM | > 100 µM | > 100 µM |  |  |  |  |  |  | 
CCN(CCCCCCOc1ccc(/C=C/c2cc(OC)cc(OC)c2)cc1)Cc1ccccc1F | > 100 µM | 86.6 µM | > 100 µM | 53 µM |  |  |  |  |  |  | 
COc1cc(/C=C/c2ccc(OCCCCCCN3CCCCC3C)cc2)cc(OC)c1 (stereo unspecified) | 16.3 µM | 4.07 µM | 24.3 µM | 10.1 µM | 0.67 |  |  |  |  |  | 
COc1cc(/C=C/c2ccc(OCCCCCCN(C)C)cc2)cc(OC)c1 | 7.52 µM | 8.19 µM | 37.5 µM | 10.3 µM | 0.2 |  |  |  |  |  | 
COc1cc(/C=C/c2ccc(OCCCCN(C)Cc3ccccc3)cc2)cc(OC)c1 | 34.6 µM | 60.9 µM | > 100 µM | 40.6 µM | < 0.35 |  |  |  |  |  | 
CCN(CCCCCCOc1ccc(/C=C/c2cc(OC)cc(OC)c2)cc1)Cc1ccccc1OC | > 100 µM | 54.9 µM | > 100 µM | 2.27 µM |  |  |  |  |  |  | 
CCN(CCCCCCOc1ccc(/C=C/c2cc(OC)cc(OC)c2)cc1)Cc1ccccc1 | 58.3 µM | 1.56 µM | 89.6 µM | 3.64 µM | 0.65 | Active |  |  |  |  | 
COc1cc(/C=C/c2ccc(OCCCCCCN3CCCC3)cc2)cc(OC)c1 | 12.2 µM | 6.55 µM | 17.6 µM | 8.04 µM | 0.7 |  | 90.8% | 93.2% | 94.4% | 95.6% | 97%
CCN(CC)CCCCCCOc1ccc(/C=C/c2cc(OC)cc(OC)c2)cc1 | 10.1 µM | 4.15 µM | 33.1 µM | 13.2 µM | 0.31 |  |  |  |  |  | 
COc1cc(/C=C/c2ccc(OCCCCCCN3CCCCC3)cc2)cc(OC)c1 | 14.2 µM | 5.02 µM | 29.8 µM | 10.7 µM | 0.48 |  |  |  |  |  | 
COc1cc(/C=C/c2ccc(OCCCCCCN3CCOCC3)cc2)cc(OC)c1 | > 100 µM | 24.4 µM | > 100 µM | 34.3 µM |  |  |  |  |  |  | 
Oc1ccc(/C=C/c2cc(O)cc(O)c2)cc1 [RESVERATROL] |  | 165 µM |  | 752 µM |  |  |  |  |  |  | 
COc1cc(/C=C/c2ccc(OCCN(C)Cc3ccccc3)cc2)cc(OC)c1 | 89 µM | 79.3 µM | > 100 µM | 89.6 µM | < 0.89 |  |  |  |  |  | 
COc1cc(/C=C/c2ccc(OCCCCCCN3CCC(O)CC3)cc2)cc(OC)c1 | 14.6 µM | 17.2 µM | > 100 µM | 23.1 µM | < 0.14 |  |  |  |  |  | 
COc1cc(/C=C/c2ccc(OCCCCCCCN(C)Cc3ccccc3)cc2)cc(OC)c1 | 63.8 µM | 23.4 µM | > 100 µM | 41.7 µM | < 0.64 |  |  |  |  |  | 
COc1cc(/C=C/c2ccc(OCCCCCCN(C)Cc3ccccc3)cc2)cc(OC)c1 | 40.3 µM | 11.7 µM | 90.4 µM | 26.4 µM | 0.45 |  |  |  |  |  | 
CCN(CCCCCCOc1ccc(/C=C/c2cc(OC)cc(OC)c2)cc1)Cc1cccc(F)c1 | 97.5 µM | 77.8 µM | > 100 µM | 52 µM | < 0.97 |  |  |  |  |  | 
COc1cc(/C=C/c2ccc(OCCCN(C)Cc3ccccc3)cc2)cc(OC)c1 | 5.01 µM | 58.1 µM | > 100 µM | 77.3 µM | < 0.5 |  |  |  |  |  | 
CCN(CCCCCCOc1ccc(/C=C/c2cc(OC)cc(OC)c2)cc1)Cc1ccc(F)cc1 | > 100 µM | 92.3 µM | > 100 µM | 85.4 µM |  |  |  |  |  |  | 
COc1cc(/C=C/c2ccc(OCCCCCCCCN(C)Cc3ccccc3)cc2)cc(OC)c1 | > 100 µM | 26.5 µM | > 100 µM | 46.8 µM |  |  |  |  |  |  | 
COc1cc(/C=C/c2ccc(OCCCCCN(C)Cc3ccccc3)cc2)cc(OC)c1 | 16.2 µM | 39.2 µM | 97.4 µM | 43.7 µM | 0.16 |  |  |  |  |  | 
CCCN(CCC)CCCCCCOc1ccc(/C=C/c2cc(OC)cc(OC)c2)cc1 | 92.4 µM | 12.1 µM | 89.4 µM | 7.49 µM | 1.03 |  |  |  |  |  | 
CCN(CCCCCCOc1ccc(/C=C/c2cc(OC)cc(OC)c2)cc1)Cc1ccc(OC)cc1 | > 100 µM | 89.7 µM | > 100 µM | > 100 µM |  |  |  |  |  |  | 
